# Measured values reported in article PMC7356157, “Shorter Antibacterial Peptide Having High Selectivity for E. coli Membranes and Low Potential for Inducing Resistance” (Microorganisms, 2020).
# Like-named read-outs stand apart in the source and are kept apart here. No end group written: not given here.
# Experiments:
# [1] = test system: E. coli clinical isolate 40; assay: Resistance profile of clinical isolate (VITEK-2); format: cell-based; settings: Escherichia coli, isolate from blood
# From the text: (§1) Approximately 50 bacterial samples were then collected from E. coli-infected patients for evaluating activity of the peptides against some clinical isolates. These samples were identified and biochemically and metabolically characterised using the VITEK-2 equipment. Isolates were profiled regarding their resistance or susceptibility to a panel of conventionally used antibiotics.
# [2] = test system: E. coli clinical isolate 44; assay: Resistance profile of clinical isolate (VITEK-2); format: cell-based; settings: Escherichia coli, isolate from blood
# From the text: as §1
# [3] = test system: E. coli clinical isolate 4; assay: Resistance profile of clinical isolate (VITEK-2); format: cell-based; settings: Escherichia coli, isolate from urine
# From the text: as §1
# [4] = test system: E. coli 35218 (ampicillin-resistant ATCC 35218 strain); format: cell-based; settings: broth microdilution
# E. coli ATCC 11775 = format: cell-based; settings: broth microdilution
# E. coli ML35 43827 [5] = format: cell-based; settings: broth microdilution
# E. coli 25922 = assay: Antibacterial activity in the presence of human sera; format: cell-based; settings: for MIC against E. coli 25922, Serum (without Pre-Incubation): peptide diluted in fresh human sera (100%), then inoculum in MHB ~5 × 10^5 CFU/mL, 18 h, 37 °C
# Protocol: The second assay involved peptide dilution in fresh human sera (100%) pre-incubated for 6 h at 37 °C in a humid chamber before putting them in contact with the bacterial inoculum diluted in MHB (~5 × 10^5 CFU/mL). The assay was incubated and read as mentioned in the microdilution section.
# E. coli ATCC 25922 [6] = format: cell-based; settings: for MIC E. coli 25922: broth microdilution, MHB, ~5 × 10^5 CFU/mL, 18 h, 37 °C, OD 620 nm, 100 to 0.2 µM; for MIC against E. coli 25922, MHB: no serum
# [7] = test system: human red blood cells (hRBC); assay: Haemolytic activity (MHC); format: cell-based; settings: 5% v/v hRBC in 1X PBS, 200–0.39 µM, 1 h, 37 °C, absorbance 560 nm
# Protocol: A haemolytic activity assay was used for determining whether peptides acted on hRBC membrane by calculating the minimum haemolytic concentration (MHC). Briefly, 100 µL serial dilutions of peptides were incubated in a 96-well plate with an equal volume of a fresh hRBC suspension at 5% v/v in 1X PBS (200–0.39 µM final peptide concentrations). The samples were spun at 1000× g for 5 min after having been incubated at 37 °C for 1 h and a Multiskan spectrometer (Thermo Fisher) was used for measuring 100 µL supernatant absorbance at 560 nm. Treated hRBC absorbance 0.1% Triton X-100 or 100% haemolysis was used as positive control.
# P. aeruginosa 27853 = assay: MIC by broth microdilution; format: cell-based; settings: MHB, 18 h, 37 °C
# E. coli ML35 43827 [8] = assay: Bactericidal activity (MBC); format: cell-based
# Protocol: (§2) Bactericidal activity was evaluated by sowing an aliquot of Luria Bertani agar (LBA) in the wells where no growth had been detected in the MIC assay.
# E. coli ATCC 25922 [9] = assay: Bactericidal activity (MBC); format: cell-based; settings: aliquots of no-growth MIC wells on LBA, 18 h, 37 °C; kills 99.9%
# Protocol: as §2
# [10] = test system: E. coli N°44 (clinical isolate); format: cell-based
# Protocol: as §2
# Approximately 50 bacterial samples were then collected from E. coli-infected patients for evaluating activity of the peptides against some clinical isolates. These samples were identified and biochemically and metabolically characterised using the VITEK-2 equipment. Isolates were profiled regarding their resistance or susceptibility to a panel of conventionally used antibiotics. Three E. coli isolates having different resistance profiles were then selected following such characterisation (Appendix A): • Isolate 4 (from urine): extended spectrum beta-lactamase (ESBL) (-), resistant to ampicillin, quinolones and co-trimoxazole. • Isolate 40 (from blood): ESBL (-), resistant to ampicillin, 1st-generation cephalosporins and co-trimoxazole. • Isolate 44 (from blood): ESBL (+), resistant to aminoglycosides, quinolones, β-lactams (including 1st-, 3rd- and 4th-generation cephalosporins).
# E. coli [11] = settings: for FIC Index: peptide + gentamicin, lowest checkerboard FIC index (method 3); for FIC P (peptide): with gentamicin
# Protocol: (§4) The checkerboard method was used for evaluating peptide antibacterial activity in combination with antibiotics [43]. […] Absorbance was measured at 620 nm and individual peptide and antibiotic MIC and combined MIC were obtained. […] The fractional inhibitory concentration index (FICI) was then calculated as the sum of peptide FIC + antibiotic FIC. A ≤ 0.5 FICI indicated synergy, 0.5 to ≤4 FICI indifference, and >4 FICI antagonism [45].
# (§5) The results were interpreted by taking the lowest checkerboard FIC index (previously reported method 3) [44].
# E. coli 35218 = format: cell-based
# Protocol: as §2
# E. coli [12] = settings: for FIC Index: peptide + ciprofloxacin, lowest checkerboard FIC index (method 3); for FIC P (peptide): with ciprofloxacin
# Protocol: as §4, §5
# [13] = test system: E. coli N°44 (clinical isolate); settings: clinical isolate from blood, ESBL (+), broth microdilution
# Protocol: (§3) The standard broth microdilution method was used for determining the peptides’ MIC [41]. […] Bacteria in Müller–Hinton broth (MHB) were used as negative control. […] The MIC was determined as the lowest peptide concentration at which bacterial growth was not detected.
# as §1
# [14] = test system: E. coli N°40 (clinical isolate); settings: clinical isolate from blood, broth microdilution
# Protocol: as §3, §1
# [15] = test system: E. coli N°4 (clinical isolate); settings: clinical isolate from urine, broth microdilution
# Protocol: as §3, §1
# E. coli ML35 = assay: Permeabilising internal membrane (ONPG); format: cell-based; settings: 1× MIC, ONPG, 405 nm, 4.5 h
MIC [1] [µg/mL],MIC [2] [µg/mL],MIC [3] [µg/mL],Molecule,MIC E. coli 25922 (E. coli ATCC 25922 [6]) [µM],MHC (minimum haemolytic concentration) [7] [µM],MIC P. aeruginosa 27853 (P. aeruginosa 27853) [µM],further results
≤ 2,32,≤ 2,NCC[C@H](O)C(=O)N[C@@H]1C[C@H](N)[C@@H](O[C@H]2O[C@H](CN)[C@@H](O)[C@H](O)[C@H]2O)[C@H](O)[C@H]1O[C@H]1O[C@H](CO)[C@@H](O)[C@H](N)[C@H]1O [Amikacin],–,–,–,–
≥ 32,≥ 32,≥ 32,"CC1(C)S[C@@H]2[C@H](NC(=O)[C@H](N)c3ccccc3)C(=O)N2[C@H]1C(=O)O [Ampicillin, ampicillin, reference compound]",–,–,–,MIC E. coli 35218 (antibiotics) [4]: >16 µg/mL; MIC E. coli 11775 (antibiotics) (E. coli ATCC 11775): <0.016 µg/mL; MIC E. coli ML35 43827 (antibiotics) (E. coli ML35 43827 [5]): <0.016 µg/mL
–,–,≤ 1,CO/N=C(\C(=O)N[C@@H]1C(=O)N2C(C(=O)[O-])=C(C[N+]3(C)CCCC3)CS[C@H]12)c1csc(N)n1 [Cefepime],–,–,–,–
≤ 1,≥ 64,≤ 1,CO/N=C(\C(=O)N[C@@H]1C(=O)N2C(C(=O)O)=C(COC(C)=O)CS[C@H]12)c1csc(N)n1 [Cefotaxime],–,–,–,–
≤ 4,≤ 4,≤ 4,CO[C@@]1(NC(=O)Cc2cccs2)C(=O)N2C(C(=O)O)=C(COC(N)=O)CS[C@@H]21 [Cefoxitin],–,–,–,–
≤ 1,≥ 64,≤ 1,CC(C)(O/N=C(\C(=O)N[C@@H]1C(=O)N2C(C(=O)[O-])=C(C[n+]3ccccc3)CS[C@H]12)c1csc(N)n1)C(=O)O [Ceftazidime],–,–,–,–
16,≥ 64,4,CC(=O)OCC1=C(C(=O)O)N2C(=O)[C@@H](NC(=O)Cc3cccs3)[C@H]2SC1 [Cephalothin],–,–,–,–
–,–,–,"O=C(O)c1cn(C2CC2)c2cc(N3CCNCC3)c(F)cc2c1=O [Ciprofloxacin, ciprofloxacin, reference compound]",–,–,–,"MIC (E. coli 25922; Escherichia coli, 25922, read-out: MIC against E. coli 25922, Serum (6 h Pre-Incubation) (ciprofloxacin), fresh human sera (100%), 6 h pre-incubation at 37 °C): 0.004 µg/mL"
≤ 1,≤ 1,≤ 1,C[C@@H](O)[C@H]1C(=O)N2C(C(=O)O)=C(SCCN=CN)C[C@H]12 [Imipenem],–,–,–,–
≤ 0.25,≤ 0.25,≤ 0.25,C[C@@H](O)[C@H]1C(=O)N2C(C(=O)O)=C(S[C@@H]3CN[C@H](C(=O)N(C)C)C3)[C@H](C)[C@H]12 [Meropenem],–,–,–,–
≤ 2,≥ 32,≥ 32,CCn1cc(C(=O)O)c(=O)c2ccc(C)nc21 [Nalidixic acid],–,–,–,–
≤ 16,≤ 16,≤ 16,O=C1CN(/N=C/c2ccc([N+](=O)[O-])o2)C(=O)N1 [Nitrofurantoin],–,–,–,–
–,–,–,ALQYIKLLKE-NH2 [Peptide 35409-6],>100,>200,>100,–
–,–,–,KKKMKKALQYIKLLKE-NH2 [Peptide 35409-2],25,>200,>100,"MBC E. coli ML35 43827 (E. coli ML35 43827 [8]): 12.5 µM; MBC E. coli 25922 (E. coli ATCC 25922 [9]): 25 µM; MIC against E. coli 25922, Serum (without Pre-Incubation) (E. coli 25922): 25 µM; MBC E. coli N°44 [10]: > 100 µM; MIC E. coli 35218 [4]: 12.5 µM; MIC against E. coli 25922, MHB (E. coli ATCC 25922 [6]): 25 µM; FIC Index (E. coli [11]): 0.75; FIC P (peptide) (E. coli [11]): 0.25; MBC E. coli 35218 (E. coli 35218): 25 µM; MIC E. coli 11775 (E. coli ATCC 11775): >100 µM; FIC Index (E. coli [12]): 3; FIC P (peptide) (E. coli [12]): 1; MIC E. coli ML35 43827 (E. coli ML35 43827 [5]): 6 µM; MIC E. coli N°44 [13]: 50 µM; MIC E. coli N°40 [14]: 50 µM; MIC E. coli N°4 [15]: >100 µM"
–,–,–,KKMKKALQYIKL-NH2 [Peptide 35409-14],>100,100,>100,–
–,–,–,KKMKKALQYIKLLKE-NH2 [Peptide 35409-3],>100,>200,>100,–
–,–,–,KMKKALQY-NH2 [Peptide 35409-16],>100,>200,>100,–
–,–,–,KMKKALQYIKLLKE-NH2 [Peptide 35409-4],100,>200,>100,"MBC E. coli ML35 43827 (E. coli ML35 43827 [8]): 50 µM; MBC E. coli 25922 (E. coli ATCC 25922 [9]): 100 µM; MIC against E. coli 25922, Serum (without Pre-Incubation) (E. coli 25922): 100 µM; MBC E. coli N°44 [10]: > 100 µM; MIC E. coli 35218 [4]: 25 µM; MIC against E. coli 25922, MHB (E. coli ATCC 25922 [6]): 100 µM; FIC Index (E. coli [11]): 0.75; FIC P (peptide) (E. coli [11]): 0.25; MBC E. coli 35218 (E. coli 35218): 50 µM; MIC E. coli 11775 (E. coli ATCC 11775): >100 µM; FIC Index (E. coli [12]): 3; FIC P (peptide) (E. coli [12]): 1; MIC E. coli ML35 43827 (E. coli ML35 43827 [5]): 25 µM; MIC E. coli N°44 [13]: 100 µM; MIC E. coli N°40 [14]: >100 µM; MIC E. coli N°4 [15]: >100 µM"
–,–,–,MKKALQYIKLLKE-NH2 [Peptide 35409-5],>100,>200,>100,–
–,–,–,RKKKMKKALQY-NH2 [Peptide 35409-15],>100,200,>100,–
–,–,–,RYRRKKK-NH2 [Peptide 35409-12],>100,>200,>100,–
–,–,–,RYRRKKKMKK-NH2 [Peptide 35409-11],>100,>200,>100,–
–,–,–,RYRRKKKMKKA-NH2 [Peptide 35409-10],>100,>200,>100,–
–,–,–,RYRRKKKMKKALQY-NH2 [Peptide 35409-9],>100,>200,>100,–
–,–,–,RYRRKKKMKKALQYIKL-NH2 [Peptide 35409-8],>100,>200,>100,–
–,–,–,YIKLLKE-NH2 [Peptide 35409-7],>100,>200,>100,–
–,–,–,"cecropin P1 (SWLSKTAKKLENSAKKRISEGIAIAIQGGPR; UniProt P14661 14-44, looked up) [positive permeabilisation control peptide, reference compound]",–,–,–,permeabilisation of E. coli internal membrane (E. coli ML35): capable of inducing a high rate of permeabilisation for the first 30 min of incubation
